From PubChem BioAssay AID2060617 (Molecular Pharmacology Branch, DTP, NCI, 2025)
pIC50: −log10 of the molar value.

Tested on: 485368-065-R4-J2-PDC spheroids with HUVEC/MSC, viability
Assay: Anticancer human tumor 485368-065-R4-J2-PDC patient-derived pancreatic carcinoma cell line growth inhibition [CLK]
Conditions: for pIC50: curve of first compound; for viability, T/C: stronger effect = lower value
Source text: A high-throughput screen of multi-cell type tumor spheroids was designed to identify active combinations of […] and targeted small molecules. Complex spheroids include a stromal component modeled by human endothelial cells (HUVEC) and fibroblasts modeled by human mesenchymal stem cells (MSCs). The concentration ranges selected for each drug and investigational agent were based upon clinically achievable concentrations if the clinical Cmax of the agent was known.
Compounds. The drugs and investigational agents: cirtuvivint (SM08502; NSC835563), CC-671 (NSC850746), vemurafenib (NSC761431), tapotoclax (NSC804041), sotorasib (NSC818433), adagrasib (NSC831453), MRTX-1133 (NSC836407), BAY2416964 (NSC825713), copanlisib (NSC816437), inavolisib (NSC800729), abemaciclib (NSC768073), osimertinib (NSC779217), entinostat (NSC756642), eltanexor (KPT-8602, NSC794443), venetoclax (NSC766270), ceralasertib (NSC777638), bortezomib (NSC756655), olaparib (NSC753686), talazoparib (NSC767125), alisertib (NSC759677), peposertib (NSC802822), gemcitabine (NSC613327), 5-fluorouracil (NSC19893), SN-38 (NSC673596), oxaliplatin (NSC266046), paclitaxel (NSC125973), and doxorubicin (NSC123127), were obtained from the National Cancer Institute (NCI) Developmental Therapeutics Program Chemical Repository. The FDA-approved anticancer drug set is available from the Developmental Therapeutics Program at https://dtp.cancer.gov/organization/dscb/obtaining/available plates.htm. […] The stock solutions were prepared in dimethyl sulfoxide (DMSO, Sigma-Aldrich, St. Louis, MO, cat. D2650), except for the platinum complexes which were prepared in saline (Quality Biological, Gaithersburg, MD, cat. 114-055-101), at 800-fold the tested concentration and stored at -70 degrees C prior to their use. All drugs and investigational agents were tested over a range starting from a high concentration at or near the clinical Cmax and decreasing in half-log increments. If the clinical Cmax for an agent had not been determined, the highest concentration tested was 10 microM.
Cell Culture. All cells were maintained in an incubator at 37 degrees C and 5% CO2 with 95% humidity. The PDC lines were cultured according to standard operating procedures established by the NCI PDMR. Briefly, all PDCs were thawed and cultured in Matrigel-coated flasks prepared with a working solution of 1X Ham's F-12 nutrient mix, without supplementation (Invitrogen, Waltham, MA, cat. 11765054), 100 U/mL penicillin-streptomycin (Invitrogen, cat. 15140122), and 2.5% Matrigel (Corning Inc., Corning, NY, cat. 354248) for the first three passages. The 947758-054-R-J2-PDC line was cultured in 6B/Colon 1A media, which includes advanced DMEM/F-12 (Thermo Fisher Scientific, cat. 12634028), 10 mM HEPES (Thermo Fisher Scientific, cat. 15630080), 1X GlutaMAX supplement (Thermo Fisher Scientific, cat. 35050061), 0.1 mg/mL primocin (InvivoGen, cat. ant-pm-2), 10% defined fetal bovine serum, heat inactivated (HyClone Laboratories Inc., cat. SH30070.03HI), 1.25 mM N-Acetyl-L-cysteine (Sigma-Aldrich, cat. A9165), 10 mM nicotinamide (Sigma-Aldrich, cat. N0636), 1X B-27 supplement (Thermo Fisher Scientific, cat. 17504044), 1X N-2 supplement (Thermo Fisher Scientific, cat. 17502048), and 10 microM Y-27632 dihydrochloride (Tocris Bioscience, cat. 1254). The 876862-298-R-J1-PDC was cultured in 6E media, which includes all 6B/Colon 1A media components plus 50% L-WRN conditioned media (ATCC, cat. CRL-3276), 50 ng/mL recombinant human EGF recombinant protein (hEGF; Thermo Fisher Scientific, cat. PHG0311), 10 ng/mL recombinant human fibroblast growth factor 10 (hGFG-10; PeproTech, cat. 100-26), 1 ng/mL recombinant human fibroblast growth factor 2 (hFGF-2; PeproTech, cat. 100-18B), and 1 µM prostaglandin E2 (PGE2; Tocris, cat. 2296). The 227483-062-R1-J1-PDC line was cultured in Panc media, containing all 6E components except hFGF-2, with the addition of 500 nM SB-431542 (Selleckchem, cat. S1067) and 10 nM gastrin (Tocris, cat. 3006). […]
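Also: spheroids exposed to compounds for seven days.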
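For viability, T/C in this document: 100% = DMSO vehicle control wells.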

## CC(C)CC(NC(=O)C(Cc1ccccc1)NC(=O)c1cnccn1)B(O)O (centres undefined) + CN1CCN(c2cc(C(=O)Nc3cc4cc(-c5cnn(C)c5)ccc4cn3)ccn2)CC1
Second compound 0.0316 µM
  pIC50: 8.16
Second compound 0.1 µM
  pIC50: 8.21
Second compound 0.316 µM
  pIC50: 8.63
Second compound 1 µM
  pIC50: > 9.02
Second compound 3.16 µM
  pIC50: > 9.02
Second compound 10 µM
  pIC50: > 9.02
Second compound 0.0316 µM, first compound 0.000949 µM
  viability, T/C: 93.5%
Second compound 0.0316 µM, first compound 0.003 µM
  viability, T/C: 118%
Second compound 0.0316 µM, first compound 0.00949 µM
  viability, T/C: 29.8%
Second compound 0.0316 µM, first compound 0.03 µM
  viability, T/C: 14.3%
Second compound 0.0316 µM, first compound 0.0949 µM
  viability, T/C: 8.25%
Second compound 0.0316 µM, first compound 0.3 µM
  viability, T/C: 4.1%
Second compound 0.1 µM, first compound 0.000949 µM
  viability, T/C: 102%
Second compound 0.1 µM, first compound 0.003 µM
  viability, T/C: 92.2%
Second compound 0.1 µM, first compound 0.00949 µM
  viability, T/C: 24.4%
Second compound 0.1 µM, first compound 0.03 µM
  viability, T/C: 14.3%
Second compound 0.1 µM, first compound 0.0949 µM
  viability, T/C: 7.86%
Second compound 0.1 µM, first compound 0.3 µM
  viability, T/C: 3.66%
Second compound 0.316 µM, first compound 0.000949 µM
  viability, T/C: 89.5%
Second compound 0.316 µM, first compound 0.003 µM
  viability, T/C: 39.8%
Second compound 0.316 µM, first compound 0.00949 µM
  viability, T/C: 14.8%
Second compound 0.316 µM, first compound 0.03 µM
  viability, T/C: 8.49%
Second compound 0.316 µM, first compound 0.0949 µM
  viability, T/C: 4.29%
Second compound 0.316 µM, first compound 0.3 µM
  viability, T/C: 2.89%
Second compound 1 µM, first compound 0.000949 µM
  viability, T/C: 1%
Second compound 1 µM, first compound 0.003 µM
  viability, T/C: 3.72%
Second compound 1 µM, first compound 0.00949 µM
  viability, T/C: 2.87%
Second compound 1 µM, first compound 0.03 µM
  viability, T/C: 1.87%
Second compound 1 µM, first compound 0.0949 µM
  viability, T/C: 3.57%
Second compound 1 µM, first compound 0.3 µM
  viability, T/C: 3.73%
Second compound 3.16 µM, first compound 0.000949 µM
  viability, T/C: 1.35%
Second compound 3.16 µM, first compound 0.003 µM
  viability, T/C: 4.02%
Second compound 3.16 µM, first compound 0.00949 µM
  viability, T/C: 3%
Second compound 3.16 µM, first compound 0.03 µM
  viability, T/C: 3.03%
Second compound 3.16 µM, first compound 0.0949 µM
  viability, T/C: 3.95%
Second compound 3.16 µM, first compound 0.3 µM
  viability, T/C: 4.37%
Second compound 10 µM, first compound 0.000949 µM
  viability, T/C: 1.26%
Second compound 10 µM, first compound 0.003 µM
  viability, T/C: 3.6%
Second compound 10 µM, first compound 0.00949 µM
  viability, T/C: 2.94%
Second compound 10 µM, first compound 0.03 µM
  viability, T/C: 1.87%
Second compound 10 µM, first compound 0.0949 µM
  viability, T/C: 2.33%
Second compound 10 µM, first compound 0.3 µM
  viability, T/C: 1.8%

## CC(Nc1ccc2c(c1)OCCn1cc(N3C(=O)OCC3C(F)F)nc1-2)C(N)=O (centres undefined) + CN1CCN(c2cc(C(=O)Nc3cc4cc(-c5cnn(C)c5)ccc4cn3)ccn2)CC1
Second compound 0.0316 µM
  pIC50: < 5.00
Second compound 0.1 µM
  pIC50: < 5.00
Second compound 0.316 µM
  pIC50: 6.80
Second compound 1 µM
  pIC50: > 7.50
Second compound 3.16 µM
  pIC50: > 7.50
Second compound 10 µM
  pIC50: > 7.50
Second compound 0.0316 µM, first compound 0.0316 µM
  viability, T/C: 92.4%
Second compound 0.0316 µM, first compound 0.1 µM
  viability, T/C: 109%
Second compound 0.0316 µM, first compound 0.316 µM
  viability, T/C: 103%
Second compound 0.0316 µM, first compound 1 µM
  viability, T/C: 83.3%
Second compound 0.0316 µM, first compound 3.16 µM
  viability, T/C: 78.8%
Second compound 0.0316 µM, first compound 10 µM
  viability, T/C: 62.3%
Second compound 0.1 µM, first compound 0.0316 µM
  viability, T/C: 98.7%
Second compound 0.1 µM, first compound 0.1 µM
  viability, T/C: 95.5%
Second compound 0.1 µM, first compound 0.316 µM
  viability, T/C: 93%
Second compound 0.1 µM, first compound 1 µM
  viability, T/C: 68.8%
Second compound 0.1 µM, first compound 3.16 µM
  viability, T/C: 58.6%
Second compound 0.1 µM, first compound 10 µM
  viability, T/C: 53.4%
Second compound 0.316 µM, first compound 0.0316 µM
  viability, T/C: 68.9%
Second compound 0.316 µM, first compound 0.1 µM
  viability, T/C: 55.8%
Second compound 0.316 µM, first compound 0.316 µM
  viability, T/C: 41.9%
Second compound 0.316 µM, first compound 1 µM
  viability, T/C: 30.3%
Second compound 0.316 µM, first compound 3.16 µM
  viability, T/C: 27.2%
Second compound 0.316 µM, first compound 10 µM
  viability, T/C: 20.7%
Second compound 1 µM, first compound 0.0316 µM
  viability, T/C: 1.25%
Second compound 1 µM, first compound 0.1 µM
  viability, T/C: 1.05%
Second compound 1 µM, first compound 0.316 µM
  viability, T/C: 0.92%
Second compound 1 µM, first compound 1 µM
  viability, T/C: 0.74%
Second compound 1 µM, first compound 3.16 µM
  viability, T/C: 1.65%
Second compound 1 µM, first compound 10 µM
  viability, T/C: 1.84%
Second compound 3.16 µM, first compound 0.0316 µM
  viability, T/C: 2.26%
Second compound 3.16 µM, first compound 0.1 µM
  viability, T/C: 1.12%
Second compound 3.16 µM, first compound 0.316 µM
  viability, T/C: 3.5%
Second compound 3.16 µM, first compound 1 µM
  viability, T/C: 2.02%
Second compound 3.16 µM, first compound 3.16 µM
  viability, T/C: 2.42%
Second compound 3.16 µM, first compound 10 µM
  viability, T/C: 2.95%
Second compound 10 µM, first compound 0.0316 µM
  viability, T/C: 1.54%
Second compound 10 µM, first compound 0.1 µM
  viability, T/C: 2.13%
Second compound 10 µM, first compound 0.316 µM
  viability, T/C: 2.05%
Second compound 10 µM, first compound 1 µM
  viability, T/C: 2.62%
Second compound 10 µM, first compound 3.16 µM
  viability, T/C: 2.43%
Second compound 10 µM, first compound 10 µM
  viability, T/C: 2.04%
